In article PMC6536496, “Modulation of antibiotic sensitivity and biofilm formation in Pseudomonas aeruginosa by interspecies signal analogues” (Nature Communications, 2019):

Target: T1, PA1396 (Pseudomonas aeruginosa, UniProt Q9I3U8)
T1 construct: reporter rows: PA1396 in P. aeruginosa cells
Assay: auto-phosphorylation in liposomes, […] SDS-PAGE
Assay type: biochemical
Settings: 10 mM MgCl2, 1 mM DTT, room temperature, 10 min

T1 sequence (Q9I3U8 entry or part of it): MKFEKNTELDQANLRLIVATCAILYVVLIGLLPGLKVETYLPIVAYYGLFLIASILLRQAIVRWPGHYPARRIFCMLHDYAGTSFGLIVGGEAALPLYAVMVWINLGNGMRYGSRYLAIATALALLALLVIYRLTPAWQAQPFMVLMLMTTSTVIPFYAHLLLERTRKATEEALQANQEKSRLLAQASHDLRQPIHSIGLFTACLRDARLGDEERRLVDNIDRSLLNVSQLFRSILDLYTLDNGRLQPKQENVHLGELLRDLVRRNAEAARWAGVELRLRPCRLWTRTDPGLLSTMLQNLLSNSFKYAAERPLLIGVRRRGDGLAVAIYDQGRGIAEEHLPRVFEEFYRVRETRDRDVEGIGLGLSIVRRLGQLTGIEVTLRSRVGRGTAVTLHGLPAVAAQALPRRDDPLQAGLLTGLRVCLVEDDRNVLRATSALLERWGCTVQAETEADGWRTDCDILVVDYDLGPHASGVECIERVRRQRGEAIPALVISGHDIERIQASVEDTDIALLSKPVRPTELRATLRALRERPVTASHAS

Structure (SMILES)	auto-phosphorylation in liposomes, 32P SDS-PAGE (agonist, 10 µM)	auto-phosphorylation in liposomes, 32P SDS-PAGE (antagonist against 10 µM DSF)
CC(C)CCCCCCC/C=C\C(=O)O [C1, cis-11-methyl-2-dodecenoic acid]	addition of DSF to PA1396-loaded liposomes led to a robust increase in the level	
CC(C)CCCCCCC/C=C\C(=O)NS(C)(=O)=O [C23, (Z)-11-methyl-N-(methylsulfonyl)dodec-2-enamide]		C23 blocks the recognition of DSF by PA1396
